Experimental data taken from PubChem BioAssay AID1963975 (Molecular Pharmacology Branch, DTP, NCI, 2024).
Each block holds one compound with its values, some of them ahead of it.

Tested on: 624824-186-R-J2-PDC multicell spheroids, viability
Test: Anticancer human tumor 624824-186-R-J2-PDC patient-derived colon adenocarcinoma cell line growth inhibition [PI3K]
Conditions: for viability, T/C: stronger effect = lower value
Outline: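 Spheroid viability read-out. Co-cultures contained the tumor line plus HUVEC and human MSCs. Each agent was paired with a PI3K inhibitor (inavolisib, alpelisib, duvelisib, copanlisib) across half-log dilutions starting at clinical Cmax, or at 10 microM when Cmax was unknown.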
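Note: spheroids exposed to agents for 7 days before viability read.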
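Throughout, for viability, T/C: 100% = DMSO vehicle treated spheroids.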

IC50 (curve of compound): > 10 µM
Compound: CC(Cn1ccc(-c2ccc(C#N)c(Cl)c2)n1)NC(=O)c1cc(C(C)O)[nH]n1 (stereo not drawn)
viability, T/C (compound 0.0316 µM): 91.5% [middle of 4 runs]
viability, T/C (compound 0.316 µM): 89.7% [middle of 4 runs]
viability, T/C (compound 1 µM): 92.9% [middle of 4 runs]
viability, T/C (compound 3.16 µM): 101% [middle of 4 runs]
viability, T/C (compound 10 µM): 106% [middle of 4 runs]

IC50 (curve of first compound, second compound 0.0316 µM): > 10 µM
IC50 (curve of first compound, second compound 0.1 µM): > 10 µM
IC50 (curve of first compound, second compound 0.316 µM): > 10 µM
IC50 (curve of first compound, second compound 1 µM): > 10 µM
IC50 (curve of first compound, second compound 3.16 µM): > 10 µM
IC50 (curve of first compound, second compound 10 µM): > 10 µM
Compound: C=CC(=O)N1CCN(c2nc(=O)n(-c3c(C)ccnc3C(C)C)c3nc(-c4c(O)cccc4F)c(F)cc23)C(C)C1 (stereo not drawn) + Cc1nc(NC(=O)N2CCCC2C(N)=O)sc1-c1ccnc(C(C)(C)C(F)(F)F)c1
viability, T/C (second compound 0.0316 µM, first compound 0.0316 µM): 98%
viability, T/C (second compound 0.0316 µM, first compound 0.1 µM): 71.2%
viability, T/C (second compound 0.0316 µM, first compound 0.316 µM): 101%
viability, T/C (second compound 0.0316 µM, first compound 1 µM): 101%
viability, T/C (second compound 0.0316 µM, first compound 3.16 µM): 92.8%
viability, T/C (second compound 0.0316 µM, first compound 10 µM): 100%
viability, T/C (second compound 0.1 µM, first compound 0.0316 µM): 91.9%
viability, T/C (second compound 0.1 µM, first compound 0.1 µM): 107%
viability, T/C (second compound 0.1 µM, first compound 0.316 µM): 105%
viability, T/C (second compound 0.1 µM, first compound 1 µM): 80%
viability, T/C (second compound 0.1 µM, first compound 3.16 µM): 93.9%
viability, T/C (second compound 0.1 µM, first compound 10 µM): 101%
viability, T/C (second compound 0.316 µM, first compound 0.0316 µM): 112%
viability, T/C (second compound 0.316 µM, first compound 0.1 µM): 87.8%
viability, T/C (second compound 0.316 µM, first compound 0.316 µM): 91.2%
viability, T/C (second compound 0.316 µM, first compound 1 µM): 79.9%
viability, T/C (second compound 0.316 µM, first compound 3.16 µM): 90.8%
viability, T/C (second compound 0.316 µM, first compound 10 µM): 87%
viability, T/C (second compound 1 µM, first compound 0.0316 µM): 86.2%
viability, T/C (second compound 1 µM, first compound 0.1 µM): 79.5%
viability, T/C (second compound 1 µM, first compound 0.316 µM): 70.4%
viability, T/C (second compound 1 µM, first compound 1 µM): 84.9%
viability, T/C (second compound 1 µM, first compound 3.16 µM): 85.2%
viability, T/C (second compound 1 µM, first compound 10 µM): 67.5%
viability, T/C (second compound 3.16 µM, first compound 0.0316 µM): 86.8%
viability, T/C (second compound 3.16 µM, first compound 0.1 µM): 88.1%
viability, T/C (second compound 3.16 µM, first compound 0.316 µM): 92%
viability, T/C (second compound 3.16 µM, first compound 1 µM): 83%
viability, T/C (second compound 3.16 µM, first compound 3.16 µM): 82.6%
viability, T/C (second compound 3.16 µM, first compound 10 µM): 93.9%
viability, T/C (second compound 10 µM, first compound 0.0316 µM): 79.2%
viability, T/C (second compound 10 µM, first compound 0.1 µM): 86.5%
viability, T/C (second compound 10 µM, first compound 0.316 µM): 79.5%
viability, T/C (second compound 10 µM, first compound 1 µM): 91.5%
viability, T/C (second compound 10 µM, first compound 3.16 µM): 84.1%
viability, T/C (second compound 10 µM, first compound 10 µM): 77.2%
